This note sets out measurements from US10098878B2, “HIF-2α inhibitors for treating iron overload disorders” (The Board of Regents of the University of Texas System, priority 2014, dated 2018).

For test [1], the target named is T1, HIF-2α HIS TAG-PASB Domain (Homo sapiens, UniProt Q99814).
T1 construct: 100 nM HIF-2α HIS TAG-PASB Domain
Put plainly: HIF-2α Scintillation Proximity Assay (SPA). It counts as binding. As to conditions: 100 nM HIF-2α HIS TAG-PASB Domain. The procedure: The total assay volume was about 100 μL in the following configuration: 2 μL compound in 100% DMSO, 88 μL buffer with protein and probe and 10 μL of SPA beads. […] The percent inhibition was determined and IC50 values were calculated using the Dotmatics system based on the following equation: % inhibition=[(high control−sample)/(high control−low control)]×100.

The test system of the next test is 786-O-Hif-Luc cells. Put plainly: Luciferase Assay. In kind it is cell-based. The note with it: read-out: Luciferase EC50. The procedure: A pool of infected cells were then selected against 2 μg/mL of puromycin (P8833, Sigma) for 10 days followed by limited dilution to select single clones.
Each concentration was tested in triplicate. After about 24 hours, luciferase activity was determined using ONE-Glo Luciferase Assay Reagent (E6110, Promega) following the manufacturer's recommended procedure. EC50 were calculated by using Dotmatics software.

Setting [2] is: 150 nM Compound 211 probe, read-out: SPA IC50.
The mark [3] stands for this setting: 24 h, 786-O-Hif-Luc cells, about 24 hours.

The structures appear in SMILES notation. Where two headings read alike, the source gives them in different places.

T1 sequence (Q99814 240-350 limits assumed): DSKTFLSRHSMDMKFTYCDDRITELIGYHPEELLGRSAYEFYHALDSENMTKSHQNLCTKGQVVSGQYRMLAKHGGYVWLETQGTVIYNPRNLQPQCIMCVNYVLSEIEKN

For `NC1c2c(ccc(Oc3cc(F)cc(F)c3)c2Br)S(=O)(=O)C1(F)F` (stereo not drawn) [Compound 140, 3-Amino-4-bromo-5-(3,5-difluorophenoxy)-2,2-difluoro-2,3-dihydrobenzo[b]thiophene 1,1-dioxide], the IC50 in test [1] (SPA IC50, 150 nM Compound 211 probe) is < 0.005 µM. For the same compound, the EC50 with 786-O-Hif-Luc cells (24 h) was found to be 1.7 µM. As for `CS(=O)(=NC#N)c1ccc(Oc2cc(F)cc(C#N)c2)c2c1[C@H](O)[C@H](F)C2` (mixture of isomers) [Compound 66, N-(((2R,3S)-7-(3-cyano-5-fluorophenoxy)-2-fluoro-3-hydroxy-2,3-dihydro-1H-inden-4-yl)(methyl)(oxo)-λ^6-sulfanylidene)cyanamide], the IC50 in test [1] (setting [2]) amounted to 0.063 µM. For the same compound, the EC50 in the test with 786-O-Hif-Luc cells (setting [3]) was found to be 0.115 µM.

Turning to `N#CN=S(=O)(CF)c1ccc(Oc2cc(F)cc(C#N)c2)c2c1[C@H](O)C(F)(F)C2` (single isomer, unassigned) [Compound 49], the IC50 in test [1] (setting [2]) came out at 0.071 µM. In addition, the EC50 with 786-O-Hif-Luc cells (setting [3]) came out at 0.1 µM. Consider `CS(=O)(=O)c1ccc(Oc2cc(F)cc(C#N)c2)c2c1[C@H](O)C(F)(F)[C@H]2F` [Compound 57, 3-fluoro-5-[(1S,3S)-2,2,3-trifluoro-1-hydroxy-7-methylsulfonyl-indan-4-yl]oxy-benzonitrile], for which, in test [1] (setting [2]), the half-inhibitory concentration (IC50) turned out to be 0.72 µM. Moreover, the EC50 in the test on 786-O-Hif-Luc cells (24 h) was determined as 0.779 µM. Take `N#Cc1cncc(Oc2ccc(S(N)(=O)=O)c3c2CC(F)(F)[C@H]3O)c1` [Compound 25, (S)-7-((5-Cyanopyridin-3-yl)oxy)-2,2-difluoro-3-hydroxy-2,3-dihydro-1H-indene-4-sulfonamide]: the IC50 in test [1] (setting [2]) is 17.6 µM. Further, the EC50 in the test with 786-O-Hif-Luc cells (setting [3]) is 1.1 µM. Consider `N#Cc1cccc(Oc2ccc3c(c2Br)[C@@H](O)C(F)(F)S3(=O)=O)c1` [Compound 194, (R)-3-((4-bromo-2,2-difluoro-3-hydroxy-1,1-dioxido-2,3-dihydrobenzo[b]thiophen-5-yl)oxy)benzonitrile], for which the IC50 in test [1] (setting [2]) was determined as 0.017 µM. Besides, the EC50 with 786-O-Hif-Luc cells (setting [3]) came out at 0.032 µM.

As to `CS(=O)(=O)c1ccc(Oc2cc(F)cc(C#N)c2)c2c1[C@H](N)C(F)(F)[C@@H]2F` [Compound 110], the IC50 in test [1] (setting [2]) was 0.51 µM. In addition, the EC50 in the test on 786-O-Hif-Luc cells (setting [3]) amounted to 1.65 µM. As to `COCCNC1c2c(ccc(Oc3cc(F)cc(F)c3)c2Br)S(=O)(=O)C1(F)F` (stereo not drawn) [Compound 143, 4-Bromo-5-(3,5-difluorophenoxy)-2,2-difluoro-3-((2-methoxyethyl)amino)-2,3-dihydrobenzo[b]thiophene 1,1-dioxide], the IC50 in test [1] (setting [2]) was < 0.005 µM. Besides, in the test with 786-O-Hif-Luc cells (setting [3]), the EC50 turned out to be 1.78 µM.

For the compound `N#Cc1cc(F)cc(Oc2ccc3c(c2CF)C(O)C(F)(F)S3(=O)=O)c1` (stereo not drawn) [Compound 152, 3-((2,2-Difluoro-4-(fluoromethyl)-3-hydroxy-1,1-dioxido-2,3-dihydrobenzo[b]thiophen-5-yl)oxy)-5-fluorobenzonitrile], the IC50 in test [1] (setting [2]) was found to be 0.086 µM. The EC50 with 786-O-Hif-Luc cells (setting [3]) stood at 0.126 µM. Turning to `N#Cc1cc(F)cc(Oc2ccc3c(c2C(F)F)C(O)CS3(=O)=O)c1` (stereo not drawn) [Compound 138, 3-((4-(Difluoromethyl)-3-hydroxy-1,1-dioxido-2,3-dihydrobenzo[b]thiophen-5-yl)oxy)-5-fluorobenzonitrile], the IC50 in test [1] (setting [2]) is 0.7 µM. For the same compound, the EC50 in the test with 786-O-Hif-Luc cells (setting [3]) came out at 1.43 µM. As for `N#CN=S1(=O)CC(O)c2c1ccc(Oc1cc(F)cc(F)c1)c2C(F)F` (stereo not drawn) [Compound 158, N-(4-(Difluoromethyl)-5-(3,5-difluorophenoxy)-3-hydroxy-1-oxido-2,3-dihydro-1λ^4-benzo[b]thiophen-1-ylidene)cyanamide], the IC50 in test [1] (setting [2]) was found to be 1.47 µM. Besides, the EC50 in the test on 786-O-Hif-Luc cells (setting [3]) amounted to 1.88 µM. As for `N[C@@H]1c2c(ccc(Oc3cc(F)cc(F)c3)c2C(F)F)S(=O)(=O)C1(F)F` [Compound 165, (R)-3-Amino-4-(difluoromethyl)-5-(3,5-difluorophenoxy)-2,2-difluoro-2,3-dihydrobenzo[b]thiophene 1,1-dioxide], the IC50 in test [1] (setting [2]) was 0.033 µM. For the same compound, in the test on 786-O-Hif-Luc cells (setting [3]), the EC50 turned out to be 0.057 µM. As for `N#Cc1c(Oc2cc(F)cc(Cl)c2)ccc2c1[C@@H](O)CS2(=O)=O` [Compound 112, (3R)-5-(3-chloro-5-fluoro-phenoxy)-3-hydroxy-1,1-dioxo-2,3-dihydrobenzothiophene-4-carbonitrile], in test [1] (setting [2]), the 50% inhibitory concentration (IC50) turned out to be 0.0465 µM. Moreover, in the test with 786-O-Hif-Luc cells (setting [3]), the EC50 was determined as 0.226 µM. As for `CS(=O)(=O)c1ccc(Oc2cc(F)cc(C#N)c2)c2c1[C@H](O)C[C@@H]2F` [Compound 59, 3-fluoro-5-[(1R,3S)-3-fluoro-1-hydroxy-7-methylsulfonyl-indan-4-yl]oxy-benzonitrile], in test [1] (setting [2]), the IC50 was determined as 0.23 µM. In the test with 786-O-Hif-Luc cells (setting [3]), the EC50 came out at 0.39 µM. For the compound `N#Cc1cc(F)cc(Oc2ccc(S(N)(=O)=O)c3c2[C@H](F)C(F)(F)[C@H]3O)c1` [Compound 103, (1S,3S)-7-(3-cyano-5-fluoro-phenoxy)-1,2,2-trifluoro-3-hydroxy-indane-4-sulfonamide], in the test with 786-O-Hif-Luc cells (24 h), the EC50 is 0.253 µM. Take `CNS(=O)(=O)c1ccc(Oc2cc(F)cc(C#N)c2)c2c1[C@H](O)C(F)(F)C2` [Compound 26, (S)-7-(3-Cyano-5-fluorophenoxy)-2,2-difluoro-3-hydroxy-N-methyl-2,3-dihydro-1H-indene-4-sulfonamide]: the EC50 in the test on 786-O-Hif-Luc cells (24 h) was determined as 0.119 µM. In the case of `N#Cc1cc(F)cc(Oc2ccc3c(c2C(F)F)[C@H](O)C(F)(F)S3(=O)=O)c1` (single isomer, unassigned) [Compound 144], the EC50 in the test on 786-O-Hif-Luc cells was found to be 0.019 µM. As to `CS(=O)(=O)c1ccc(Oc2cc(F)cc(C#N)c2)c2c1[C@H](O)[C@@H](F)C2` [Compound 35, 3-fluoro-5-(((1S,2S)-2-fluoro-1-hydroxy-7-(methylsulfonyl)-2,3-dihydro-1H-inden-4-yl)oxy)benzonitrile], in the test on 786-O-Hif-Luc cells (24 h), the EC50 stood at 0.473 µM.

In the case of `O=[N+]([O-])c1ccc(Oc2cc(F)cc(Cl)c2)c2c1C(O)CC2` (stereo not drawn) [Compound 27, 4-(3-Chloro-5-fluorophenoxy)-7-nitro-2,3-dihydro-1H-inden-1-ol], the EC50 with 786-O-Hif-Luc cells (setting [3]) was determined as 1.39 µM.

For the compound `O=S1(=O)CC(O)c2c1ccc(Oc1cc(F)cc(Cl)c1)c2Br` (stereo not drawn) [Compound 116, 4-Bromo-5-(3-chloro-5-fluorophenoxy)-3-hydroxy-2,3-dihydrobenzo[b]thiophene 1,1-dioxide], the EC50 with 786-O-Hif-Luc cells was 4.8 µM.

Take `CS(=O)(=O)c1ccc(Oc2cc(F)cc(C#N)c2)c2c1[C@H](O)CC2` [Compound 51, 3-fluoro-5-[(1R)-1-hydroxy-7-methylsulfonyl-indan-4-yl]oxy-benzonitrile]: the EC50 in the test with 786-O-Hif-Luc cells (setting [3]) came out at 0.65 µM. Turning to `CS(=O)(=O)c1ccc(Oc2cc(F)cc(C#N)c2)c2c1[C@H](O)[C@H](F)[C@@H]2F` [Compound 53, 3-[(1S,2S,3R)-2,3-difluoro-1-hydroxy-7-methylsulfonyl-indan-4-yl]oxy-5-fluoro-benzonitrile], in the test with 786-O-Hif-Luc cells (setting [3]), the EC50 is 0.004 µM.

As for `[2H][C@]1(O)c2c(S(C)(=O)=O)ccc(Oc3cc(F)cc(C#N)c3)c2CC1(F)F` [Compound 23, (S)-3-((2,2-Difluoro-1-hydroxy-7-(methylsulfonyl)-2,3-dihydro-1H-inden-4-yl-1-d)oxy)-5-fluorobenzonitrile], the EC50 with 786-O-Hif-Luc cells (24 h) was determined as 0.024 µM. Take `O=S1(=O)c2ccc(Oc3cc(F)cc(F)c3)c(C(F)F)c2C(O)C1F` (stereo not drawn) [Compound 133, 4-(difluoromethyl)-5-(3,5-difluorophenoxy)-2-fluoro-3-hydroxy-2,3-dihydrobenzo[b]thiophene 1,1-dioxide]: in the test on 786-O-Hif-Luc cells (setting [3]), the EC50 was found to be 0.124 µM.

For the compound `N#Cc1cncc(Oc2ccc(S(=O)(=O)C(F)(F)F)c3c2CC(F)(F)[C@H]3O)c1` [Compound 18, (S)-5-((2,2-Difluoro-1-hydroxy-7-((trifluoromethyl)sulfonyl)-2,3-dihydro-1H-inden-4-yl)oxy)nicotinonitrile], the EC50 in the test on 786-O-Hif-Luc cells (24 h) was found to be 0.015 µM.
